According to patent US20220306737A1, “USE OF HIGH-AFFINITY, LIGAND-BLOCKING, HUMANIZED ANTI-T-CELL IMMUNOGLOBULIN DOMAIN AND MUCIN DOMAIN-3 (TIM-3) IGG4 ANTIBODY FOR THE TREATMENT OF MYELOFIBROSIS” (Novartis AG, priority 2019, published 2022):
“Also recorded” adds a separate entry of the source.

Experiments:
[1] = CMBG453X2101 clinical study in advanced solid tumors, safety; assay type: in vivo, human; conditions: any dose up to 1200 mg IV Q2W or Q4W
Protocol: (§1) In this study, the selection of the MBG453 dose and regimen is based on the currently available clinical safety, efficacy, PK and PK/PD modeling information from the CMBG453X2101 in advanced solid tumors and CPDR001X2105 in AML and MDS trials for MBG453. For solid tumor subjects, both 800 mg IV Q4W and 400 mg IV every 2 weeks (Q2W) are predicted to give sustained target (TIM-3) occupancy of 90% in tumor in >90% of subjects. […] MBG453 single agent is also being evaluated in AML/MDS subjects in the CPDR001X2105 study with Q4W and Q2W regimens. The recommended dose in AML/MDS has not yet been determined, however it is not expected to be different from solid tumors, based on preliminary PK and safety data.

[2] = MBG453 phase I/II development, impact on hematopoiesis; assay type: in vivo, human
[3] = CPDR001X2105 clinical study in AML/MDS subjects, tolerability; assay type: in vivo, human; conditions: 400 mg IV Q2W and 800 mg IV Q4W
Protocol: as §1

[4] = test system: broad panel of 26 kinases; conditions: tested at 200 nM; cited from earlier work
[5] = cited from earlier work
JAK3 = JAK3 (Homo sapiens, UniProt P52333); conditions: at clinically relevant concentrations; cited from earlier work
Chain of JAK3 (P52333 whole entry, species assumed): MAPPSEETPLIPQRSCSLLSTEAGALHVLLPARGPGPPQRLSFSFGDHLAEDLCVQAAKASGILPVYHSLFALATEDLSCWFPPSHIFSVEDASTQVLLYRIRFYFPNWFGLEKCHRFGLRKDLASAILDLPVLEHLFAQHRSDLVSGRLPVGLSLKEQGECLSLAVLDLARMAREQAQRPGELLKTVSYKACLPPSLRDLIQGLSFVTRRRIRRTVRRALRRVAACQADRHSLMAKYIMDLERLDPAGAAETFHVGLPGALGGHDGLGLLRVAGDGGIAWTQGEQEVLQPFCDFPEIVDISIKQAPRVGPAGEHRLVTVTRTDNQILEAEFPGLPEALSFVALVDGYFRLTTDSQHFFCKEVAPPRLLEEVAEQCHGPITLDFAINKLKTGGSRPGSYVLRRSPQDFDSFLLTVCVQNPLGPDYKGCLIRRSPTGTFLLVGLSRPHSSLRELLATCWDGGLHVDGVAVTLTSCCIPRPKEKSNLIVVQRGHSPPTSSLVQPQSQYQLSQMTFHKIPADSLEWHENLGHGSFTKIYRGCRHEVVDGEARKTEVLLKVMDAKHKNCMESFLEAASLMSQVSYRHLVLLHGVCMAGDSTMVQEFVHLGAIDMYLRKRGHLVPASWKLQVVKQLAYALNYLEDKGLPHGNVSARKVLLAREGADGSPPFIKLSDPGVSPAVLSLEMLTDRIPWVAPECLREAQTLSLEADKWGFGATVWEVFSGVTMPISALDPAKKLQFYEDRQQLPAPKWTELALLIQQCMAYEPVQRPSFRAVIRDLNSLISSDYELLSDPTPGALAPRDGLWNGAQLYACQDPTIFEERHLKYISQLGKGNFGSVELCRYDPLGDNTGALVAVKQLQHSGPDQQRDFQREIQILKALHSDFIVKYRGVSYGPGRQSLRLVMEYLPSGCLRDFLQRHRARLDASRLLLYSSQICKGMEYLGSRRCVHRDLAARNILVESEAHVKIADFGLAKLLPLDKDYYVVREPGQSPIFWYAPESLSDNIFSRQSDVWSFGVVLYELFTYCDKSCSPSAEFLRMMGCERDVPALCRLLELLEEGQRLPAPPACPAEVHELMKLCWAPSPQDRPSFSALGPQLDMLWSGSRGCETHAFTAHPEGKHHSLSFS

| Compound | safety signal [1] | impact on hematopoiesis [2] | tolerability [3] | inhibition of a broad panel of 26 kinases [4] | effect on anemia ([5]; MF patients) | effect on splenomegaly (spleen size) and constitutional symptoms of MF ([5]; MF patients) | hematoxicity ([5]; human, in vivo) | inhibition of JAK3 (JAK3) |
| --- | --- | --- | --- | --- | --- | --- | --- | --- |
| MBG453: anti-TIM-3 antibody disclosed in US Patent Application Publication No. 2015/0218274 | No significant safety signal | has not been found to have a negative impact on hematopoiesis | well tolerated | – | – | – | – | – |
| N#CC[C@H](C1CCCC1)n1cc(-c2ncnc3[nH]ccc23)cn1 [Ruxolitinib, (R)-3-(4-(7H-pyrrolo[2,3-d]pyrimidin-4-yl)-1H-pyrazol-1-yl)-3-cyclopentylpropanenitrile] | – | – | – | < 30% | does not improve | highly effective; also recorded: improvements | partial transient hematoxicity | does not inhibit |
